Article PMC5201116, “Bioactive Flavonoids and Catechols as Hif1 and Nrf2 Protein Stabilizers - Implications for Parkinson’s Disease” (Aging and Disease, 2016)
Where two headings read alike, the source gives them in different places.

Tests used:
[1] = Iron binding constant, calcein displacement assay; type: physicochemical; details: calcein displacement
From the text: Calcein displacement assay in the presence of varied concentrations of flavonoids and catechols has been used. Calcein release from its complex with iron was monitored by fluorescence as described in [26].

[2] = tested on: HIF1 ODD-luc reporter (SH-SY5Y cell line); assay: HIF1 ODD-luc reporter assay; type: cell-based; details: for ODD-luc fold activation / fold induction at 10 µM: at 10 µM, 3 h incubation; for fold induction at 10 µM: Homo sapiens, SH-SY5Y, 3 h, read-out: ODD-luc fold activation
Method: (§1) SH-SY5Y cell lines stably expressing HIF1 ODD-luc or Neh2-luc reporters were grown in the DMEM/F12 supplemented with GlutaMAX (Thermo Fisher Scientific) containing 10% FBS, 100 U/ml penicillin, and 100 μg/ml streptomycin and plated into 384-well white flat-bottom plates at 7,000 cell/well in 30 µl serum and incubated overnight at 37°C, 5% CO2. The next day compounds were added to a final concentration of 10 µM and the plates were incubated for 3 hours at 37°C. Reporter activation after 3 h incubation with the studied compound was compared to that for ciclopirox (HIF1 ODD-luc reporter) or TBHQ (Neh2-luc reporter), taken as 100%. Luciferase reporter activity was measured with a SteadyGlo reagent from Promega providing stable reading for 1 h.
(§2) Cells were plated at the density of 25,000 cell per well using a WellMate multichannel dispenser from Matrix (Thermo Fisher Scientific, Waltham, MA) and grown overnight on DMEM/F12+GlutaMAX (100 µl per well). Then an inhibitor was added, and the plates were incubated for a fixed time interval; the medium was removed, cells lysed, and luciferase activity was measured on a SpectraMax M5e platereader (Molecular Devices, Sunnyvale, CA) with BrightGlo™ reagent (Promega, Madison, WI). The reporter activation was normalized to the background luminescence. The effect of 0.5 mM N-acetylcysteine (NAC) was studied by simultaneous addition of 5 µL of 10 mM stock of NAC in water and 2 µL of 50x stock solutions of a flavonoid in DMSO.

[3] = tested on: HRE-luciferase reporter (HT22 hippocampal cell line); assay: HRE-luc reporter assay; type: cell-based; details: for HRE-luc fold activation / fold induction at 10 µM: at 10 µM; for fold induction at 10 µM: Mus musculus, HT-22, 3 h, read-out: HRE-luc fold activation
From the text: A promoter-reporter construct that contained 68 bp of a known hypoxia and HIF-1 regulated gene, enolase, containing a wild type hypoxia response element (HRE, 5’-RCTGT-3’), is a widely used approach for screening for HIF activators of different mechanism of action. A cell-based assay with HRE-luciferase reporter system is based on transfected immortalized hippocampal cell line (HT22) and allows screening for a broad spectrum of compounds that include: activators of HIF transcription; activators of HIF binding to HRE; and effectors of HIF protein stability (PHD inhibitors, pVHL & proteasome inhibitors). The assay was performed the same way as for HIF ODD-luc reporter except the cells were plated at the density of 10,000 cell per well and incubated overnight.

[4] = tested on: Neh2-luc reporter (SH-SY5Y cell line); assay: Neh2-luc reporter assay; type: cell-based; details: for EC50: Neh2-luc
Method: as §1, §2

[5] = design: method as in PMID 17112238; details: cited from earlier work

SMILES	Iron complex Diss. Const [1]	ODD-luc fold activation [2]	HRE-luc fold activation [3]	Neh2-luc fold activation ([4]; at 10 µM, 3 h incubation)	fold induction at 10 µM [3]	also measured
COc1ccc2c(=O)c(OC)c(-c3ccccc3)oc2c1 [compound 6, 3,7-Dimethoxy-]	–	Inactive	inactive	Inactive	–	–
CC(C)Oc1ccc2c(=O)c(-c3ccccc3)coc2c1 [compound 22, Ipriflavone]	Inactive	Inactive	–	Inactive	2.5 ± 0.3	–
O=c1c(-c2ccc(O)cc2)coc2cc(O)cc(O)c12 [compound 23, Genistein]	Inactive	Inactive	–	Inactive	1.5 ± 0.2	–
O=c1c(-c2ccc(O)cc2)coc2cc(O)cc(O)c12 [compound 24, 5-Hydroxy-daidzein]	–	–	Inactive	–	–	–
O=c1c(-c2ccc(O)cc2)coc2c(O)c(O)ccc12 [compound 25, 8-Hydroxy-daidzein]	1.5 ± 0.3 µM	Inactive	Inactive	Inactive	–	–
N[C@H](Cc1ccc(O)c(O)c1)C(=O)O [compound 30, 3,4-Dihydroxy-D-phenylalanine]	2.5 ± 0.3 µM	Inactive	Inactive	Inactive	–	EC50 ([4]; Homo sapiens, SH-SY5Y): 20 µM
O=C(NO)c1ccc(O)c(O)c1 [compound 33, 3,4-Dihydroxy-benzohydroxamate]	1.5 ± 0.3 µM	–	–	Inactive	–	ODD-luc: concentration above which active [2]: Active above 100 µM; ODD-luc: concentration above which active ([2]; listed as Didox): above 100 µM; HRE-luc: concentration above which active [3]: Active above 100 µM; EC50 [4]: 100 µM

More lines, main results first:

Iron complex Diss. Const [1]	SMILES	ODD-luc fold activation [2]	HRE-luc fold activation [3]	Neh2-luc fold activation ([4]; at 10 µM, 3 h incubation)	fold induction at 10 µM [3]	also measured
4.0 ± 0.4 µM	COc1ccc(-c2oc3ccccc3c(=O)c2O)cc1 [compound 4, 3-Hydroxy-4'-methoxy-]	–	–	–	–	–
5.0 ± 0.5 µM	COc1ccc2c(=O)c(O)c(-c3ccccc3)oc2c1 [compound 5, 3-Hydroxy-7-methoxy-]	Inactive	Inactive	Inactive	–	Iron complex Diss. Const ([1]; listed as 3-hydroxy-7-methoxyflavone): ca. 5 µM
2.5 ± 0.3 µM	O=c1c(O)c(-c2ccc(O)cc2O)oc2cc(O)cc(O)c12 [compound 12, Morin]	Inactive	–	Inactive	1.3 ± 0.2	EHOMO [5]: -8.81 eV; Neh2-luc fold activation ([4]; at 10 µM, 3 h incubation, listed as morin): completely inactive
2.0 ± 0.2 µM	O=c1c(O)c(-c2cc(O)c(O)c(O)c2)oc2cc(O)cc(O)c12 [compound 13, Myricetin]	–	–	–	2 ± 0.2	EHOMO [5]: -8.80 eV; fold induction at 10 µM [2]: 1.3 ± 0.2; EC50 ([4]; Homo sapiens, SH-SY5Y): 2 µM; fold induction at 10 µM ([4]; Homo sapiens, SH-SY5Y, at 10 µM, 3 h incubation, read-out: Neh2-luc fold activation): 25 ± 3
Inactive	O=c1cc(-c2ccccc2)oc2cccc(O)c12 [compound 14, 5-hydroxyflavone]	Inactive	Inactive	Inactive	–	EHOMO [5]: -9.12 eV; Iron complex Diss. Const ([1]; listed as 5-hydroxyflavone): does not bind iron in solution
Inactive	COc1cc(C)c2c(=O)cc(-c3ccccc3)oc2c1 [compound 21, Methoxyvone]	Inactive	–	Inactive	3.2 ± 0.35	–
Inactive	O=c1c(-c2ccc(O)cc2)coc2cc(O)ccc12 [compound 26, Daidzein]	Inactive	Inactive	Inactive	–	ODD-luc fold activation ([2]; listed as daidzein): did not cause any activation effect; Neh2-luc fold activation ([4]; at 10 µM, 3 h incubation, listed as daidzein): not
0.05 ± 0.01 µM	O=C(O)CN(CC(=O)O)Cc1cc2c(cc1O)Oc1cc(O)c(CN(CC(=O)O)CC(=O)O)cc1C21OC(=O)c2ccccc21 [compound 34, Calcein, reference compound]	–	–	Inactive	1.7 ± 0.2	fold induction at 10 µM [2]: 2 ± 0.25
